# Experimental data reported in patent publication US8518952B2, “6 substituted 2-heterocyclylamino pyrazine compounds as CHK-1 inhibitors” (Pfizer Inc., priority 2008, dated 2013).
# pKi: −log10 of the molar value. Where a name gives a salt, the structure may show the parent alone.
# Target: T1, CHK1 (kinase domain) (Homo sapiens, UniProt O14757)
# T1 construct: a solution containing 1 nM of CHK1 (kinase domain)
# T1 sequence (O14757 9-265 limits assumed): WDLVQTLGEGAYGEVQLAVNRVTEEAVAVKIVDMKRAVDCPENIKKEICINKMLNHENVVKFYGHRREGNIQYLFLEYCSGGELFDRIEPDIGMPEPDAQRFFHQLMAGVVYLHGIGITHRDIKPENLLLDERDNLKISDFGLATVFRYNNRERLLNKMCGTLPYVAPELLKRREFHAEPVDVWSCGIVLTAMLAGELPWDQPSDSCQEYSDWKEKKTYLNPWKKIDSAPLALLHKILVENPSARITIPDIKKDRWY
# Experiment: CHK1 Ki determination, spectrophotometric coupled (pyruvate kinase/lactate dehydrogenase) assay
# Format: biochemical
# Settings: CHK-1 kinase domain; 150 uM ATP, 125 uM Syntide 2
# Protocol: After 15 min pre-incubation, the enzymatic reaction was initiated by the simultaneous addition of Syntide 2 peptide (125 uM, final concentration) and ATP (150 uM, final concentration). The kinase-catalyzed production of ADP from ATP that accompanied phosphoryl transfer to the substrate Syntide 2 was coupled to the oxidation of NADH through the activities of pyruvate kinase and lactate dehydrogenase. NADH conversion to NAD^+ was monitored by the decrease in absorbance at 340 nm (ε=6.22 cm^−1 mM^−1) using a microplate reader from Molecular Devices Spectormax Plus (Sunnyvale, Calif.) or BMG LABTECH Inc (Offenburg, Germany).
# The inhibition of CHK1 was analyzed by fitting the data to the following equation to determine Kiapp:
# [formula] where [E]o and [I]o are the active enzyme and inhibitor concentration, respectively; Ki is the inhibition binding constant and Km the Michaelis-Menten constant for ATP; Vi and Vo are the rates of substrate oxidation in the presence of and in the absence of inhibitor, respectively. EC50 Determination (Cellular Assay)
# Under the “Ki” column, data entries in the format of “%” are percent inhibition data where no Ki data is available. Data entry under the “EC50” column with an * are data obtained using Mia Paca-2 cells rather than HeLa cells. Data is not available where noted as n/a.
row,SMILES,pKi
1,"C[C@@H]1NCCC[C@H]1Nc1cncc(-c2cnc3ccc(F)cn23)n1 [Example 95, 6-(6-fluoroimidazo[1,2-a]pyridin-3-yl)-N-[(2S,3R)-2-methylpiperidin-3-yl]pyrazin-2-amine]",7.43
2,"Cc1cn2c(-c3cncc(N[C@@H]4CCCN[C@H]4C)n3)cnc2s1 [Example 133, 6-(2-methylimidazo[2,1-b][1,3]thiazol-5-yl)-N-[(2S,3R)-2-methylpiperidin-3-yl]pyrazin-2-amine]",7.67
3,"c1ccc2c(c1)ncn2-c1cncc(NC2CCNC2)n1 (stereo not shown) [Example 208, 6-(1H-benzimidazol-1-yl)-N-(pyrrolidin-3-yl)pyrazin-2-amine]",6.71
4,"F[C@@H]1CNC[C@@H]1Nc1cncc(-c2cnn3ccccc23)n1 (relative stereo) [Example 45, Cis N-[4-fluoropyrrolidin-3-yl]-6-pyrazolo [1,5-a]pyridin-3-ylpyrazin-2-amine]",6.23
5,"c1cc2c(-c3cncc(N[C@@H]4CCCNC4)n3)cnn2cn1 [Example 299, (R)-Piperidin-3-yl-(6-pyrazolo[1,5-c]pyrimidin-3-yl-pyrazin-2-yl)-amine]",8.39
6,"F[C@@H]1CNC[C@@H]1Nc1cncc(-c2cnc3cccnn23)n1 [Example 81, N-[(3S,4R)-4-fluoropyrrolidin-3-yl]-6-imidazo[1,2-b]pyridazin-3-ylpyrazin-2-amine, acetate salt]",6.00
7,"CCOc1cc2ncn(-c3cncc(N[C@H]4CNCC[C@@H]4OC)n3)c2cn1 [Example 298, [6-(6-Ethoxy-imidazo[4,5-c]pyridin-3-yl)-pyrazin-2-yl]-((3S,4S)-4-methoxy-piperidin-3-yl)-amine]",8.28
8,"C[C@H]1NCCC[C@H]1Nc1cncc(-c2cnc3ccc(F)cn23)n1 [Example 164, 6-(6-fluoroimidazo[1,2-a]pyridin-3-yl)-N-[(2R,3R)-2-methylpiperidin-3-yl]pyrazin-2-amine]",7.74
9,"c1cnn2c(-c3cncc(NC4CCCCNC4)n3)cnc2c1 (stereo not shown) [Example 80, N-(6-imidazo[1,2-b]pyridazin-3-ylpyrazin-2-yl)azepan-3-amine, acetate salt]",6.00
10,"COc1ccn2c(-c3cncc(N[C@H]4CNC[C@H]4C4CCCC4)n3)cnc2c1 [Example 210, N-[(3R,4R)-4-cyclopentylpyrrolidin-3-yl]-6-(7-methoxyimidazo[1,2-a]pyridin-3-yl)pyrazin-2-amine]",8.55
11,"N#Cc1ccc2ncc(-c3cncc(N[C@H]4CNC[C@H]4C4CC4)n3)n2c1 [Example 263, 3-(6-{[(3R,4R)-4-cyclopropylpyrrolidin-3-yl]amino}pyrazin-2-yl)imidazo[1,2-a]pyridine-6-carbonitrile]",6.43
12,"C[C@H]1CC[C@@H](Nc2cncc(-c3cnc4cccnn34)n2)CN1 [Example 83, 6-imidazo[1,2-b]pyridazin-3-yl-N-[(3R,6S)-6-methylpiperidin-3-yl]pyrazin-2-amine, acetate salt]",6.00
13,"CCOc1cc2ncn(-c3cncc(N[C@H]4CN[C@H](COC)C4)n3)c2cn1 [Example 297, [6-(6-Ethoxy-imidazo[4,5-c]pyridin-3-yl)-pyrazin-2-yl]-((3R,5S)-5-methoxymethyl-pyrrolidin-3-yl)-amine]",6.98
14,"C[C@@H]1CC[C@@H](Nc2cncc(-c3cnc4cccnn34)n2)CN1 [Example 84, 6-imidazo[1,2-b]pyridazin-3-yl-N-[(3R,6R)-6-methylpiperidin-3-yl]pyrazin-2-amine, acetate salt]",6.00
15,"F[C@@H]1CNC[C@H]1Nc1cncc(-c2cnc3cccnn23)n1 [Example 82, N-[(3R,4R)-4-fluoropyrrolidin-3-yl]-6-imidazo[1,2-b]pyridazin-3-ylpyrazin-2-amine]",6.00

# Same assay, conditions: CHK-1 kinase domain; inhibitor concentration not given
row,SMILES,percent inhibition (where no Ki data is available)
1,"c1cc2ncn(-c3cncc(N[C@@H]4CCNC4)n3)c2cc1OCC1CC1 [Example 220, 6-[6-(cyclopropylmethoxy)-1H-benzimidazol-1-yl]-N-[(3R)-pyrrolidin-3-yl]pyrazin-2-amine]",17.9%^
2,"Cc1ncc(-c2cncc(N[C@@H]3CNC[C@@H]3F)n2)n1C [Example 76, 6-(1,2-dimethyl-1H-imidazol-5-yl)-N-[(3R,4S)-4-fluoropyrrolidin-3-yl]pyrazin-2-amine]",1.6%^
3,"Cc1ncc(-c2cncc(NC3CCCCNC3)n2)n1Cc1ccccc1 (stereo not shown) [Example 74, N-[6-(1-benzyl-2-methyl-1H-imidazol-5-yl)pyrazin-2-yl]azepan-3-amine]",5.8%^
4,"Cc1ncc(-c2cncc(N[C@@H]3CCNC3)n2)n1Cc1ccccc1 [Example 75, 6-(1-benzyl-2-methyl-1H-imidazol-5-yl)-N-[(3R)-pyrrolidin-3-yl]pyrazin-2-amine]",6.7%^
5,"Cc1nc2ccccn2c1-c1cncc(N[C@@H]2CCCNC2)n1 [Example 153, 6-(2-methylimidazo[1,2-a]pyridin-3-yl)-N-[(3R)-piperidin-3-yl]pyrazin-2-amine]",2.2%^
6,"Cc1cccc2ncc(-c3cncc(N[C@@H]4CCNC4)n3)n12 [Example 58, 6-(5-Methylimidazo[1,2-a]pyridin-3-yl)-N-[(3R)-pyrrolidin-3-yl]pyrazin-2-amine]",0%
7,"C[C@@H]1NCCC[C@H]1Nc1cncc(-c2cnc3ccccn23)n1 [Example 131, 6-imidazo[1,2-a]pyridin-3-yl-N-[(2S,3R)-2-methylpiperidin-3-yl]pyrazin-2-amine]",0%
8,"Cc1ncc(-c2cncc(N[C@H]3CNC[C@@H]3F)n2)n1C [Example 77, 6-(1,2-dimethyl-1H-imidazol-5-yl)-N-[(3S,4S)-4-fluoropyrrolidin-3-yl]pyrazin-2-amine]",0%
9,"Cc1cccn2c(-c3cncc(N[C@@H]4CCCNC4)n3)cnc12 [Example 207, 6-(8-methylimidazo[1,2-a]pyridin-3-yl)-N-[(3R)-piperidin-3-yl]pyrazin-2-amine]",21%
10,"Cc1cn2c(-c3cncc(N[C@H]4CCCN[C@@H]4C)n3)cnc2s1 [Example 177, 6-(2-methylimidazo[2,1-b][1,3]thiazol-5-yl)-N-[(2R,3S)-2-methylpiperidin-3-yl]pyrazin-2-amine]",49.1%^
11,"Cc1ncc(-c2cncc(NC3CCCCNC3)n2)n1C (stereo not shown) [Example 69, N-[6-(1,2-dimethyl-1H-imidazol-5-yl)pyrazin-2-yl]azepan-3-amine]",0.60%^
12,"Cc1ncc(-c2cncc(N[C@@H]3CC[C@@H](C)NC3)n2)n1C [Example 71, 6-(1,2-dimethyl-1H-imidazol-5-yl)-N-[(3R,6R)-6-methylpiperidin-3-yl]pyrazin-2-amine]",0%
13,"Cc1ncc(-c2cncc(N[C@@H]3CC[C@@H](C)NC3)n2)n1Cc1ccccc1 [Example 68, 6-(1-benzyl-2-methyl-1H-imidazol-5-yl)-N-[(3R,6R)-6-methylpiperidin-3-yl]pyrazin-2-amine]",0%
14,"c1ccc2c(c1)ncn2-c1cncc(N[C@H]2CCCNC2)n1 [Example 63, 6-(1H-benzimidazol-1-yl)-N-[(3S)-piperidin-3-yl]pyrazin-2-amine]",35.5%^
15,"Cc1ncc(-c2cncc(N[C@@H]3CCNC3)n2)n1C [Example 73, 6-(1,2-dimethyl-1H-imidazol-5-yl)-N-[(3R)-pyrrolidin-3-yl]pyrazin-2-amine]",0%
16,"FC[C@@H]1CNC[C@@H]1Nc1cncc(-c2cnc3sccn23)n1 [Example 182, N-[(3R,4R)-4-(fluoromethyl)pyrrolidin-3-yl]-6-(imidazo[2,1-b][1,3]thiazol-5-yl)pyrazin-2-amine]",98.9%^
17,"Cc1ncc(-c2cncc(N[C@@H]3CCCNC3)n2)n1Cc1ccccc1 [Example 72, 6-(1-benzyl-2-methyl-1H-imidazol-5-yl)-N-[(3R)-piperidin-3-yl]pyrazin-2-amine]",1.4%^
18,"c1ccn2c(-c3cncc(N[C@@H]4CCCNC4)n3)nnc2c1 [Example 8, N-[(3R)-piperidin-3-yl]-6-[1,2,4]triazolo[4,3-a]pyridin-3-ylpyrazin-2-amine]",16.7%^
19,"Cc1ncc(-c2cncc(N[C@@H]3CC[C@H](C)NC3)n2)n1C [Example 70, 6-(1,2-dimethyl-1H-imidazol-5-yl)-N-[(3R,6S)-6-methylpiperidin-3-yl]pyrazin-2-amine]",0%
